Experimental data from ChEMBL document CHEMBL1136292, “Synthesis and AMPA receptor antagonistic activity of a novel class of quinoxalinecarboxylic acid with a substituted phenyl group at the C-7 position” (Bioorg Med Chem Lett, 2003).
Activity calls are given as the source filed them. The calls are words filed in the database; no cut-off is given here.

What was measured:
[1] = biological target: Glutamate receptor ionotropic, AMPA (Rattus norvegicus, UniProt P19490+P19491+P19492+P19493); assay: biochemical
Description: Binding affinity for ionotropic glutamate receptor AMPA using [3H]AMPA as radioligand, bound to synaptic membranes prepared from rat cerebral cortex

Rattus norvegicus [2] = assay: Neuroprotective effect in rat after iv administration at a dose of 20 mg/kg/h for 4 h; type: functional
Rattus norvegicus [3] = species: Rattus norvegicus; assay: In vitro inhibitory effect on AMPA-induced DC potential in rat cortical slices; active; type: functional
Rattus norvegicus [4] = assay: Neuroprotective effect in rat after iv administration at a dose of 30 mg/kg/h for 4 h; type: functional
Rattus norvegicus [5] = assay: Neuroprotective effect in rat after iv administration at a dose of 15 mg/kg/h for 4 h; type: functional
Rattus norvegicus [6] = assay: Neuroprotective effect in rat after iv administration at a dose of 2.5 mg/kg/h for 4 h; type: functional
Rattus norvegicus [7] = assay: Neuroprotective effect in rat after iv administration at a dose of 5 mg/kg/h for 4 h; type: functional

Row | Structure (SMILES) | Ki [1] [nM] | other results
1 | CN(C)c1cc2nc(C(=O)O)c(O)nc2cc1[N+](=O)[O-] | 910 | 
2 | O=C(Nc1ccccc1Cl)OCc1cn(-c2cc3nc(C(=O)O)c(O)nc3cc2[N+](=O)[O-])cn1 | 20 | 
3 | O=C(Nc1ccccc1)OCc1cn(-c2cc3nc(C(=O)O)c(O)nc3cc2[N+](=O)[O-])ccc1=O | 170 | 
4 | O=C(O)c1nc2cc(N3CCOCC3)c([N+](=O)[O-])cc2nc1O | 2000 | 
5 | O=C(O)c1nc2cc(-n3ccnc3)c([N+](=O)[O-])cc2nc1O |  | Activity (Rattus norvegicus [2]): 0.2; activity call (active/inactive) (Rattus norvegicus [3]): Active
6 | O=C(Nc1ccccc1)OCc1cn(-c2cc3nc(C(=O)O)c(O)nc3cc2[N+](=O)[O-])cn1 | 86 | 
7 | Cc1ccccc1NC(=O)OCc1cn(-c2cc3nc(C(=O)O)c(O)nc3cc2[N+](=O)[O-])cn1 | 16 | 
8 | Cc1cccc(NC(=O)OCc2cn(-c3cc4nc(C(=O)O)c(O)nc4cc3[N+](=O)[O-])cn2)c1 | 22 | 
9 | O=C(Nc1ccc(Cl)cc1)OCc1cn(-c2cc3nc(C(=O)O)c(O)nc3cc2[N+](=O)[O-])cn1 | 30 | 
10 | O=C(NCc1ccccc1Br)OCc1cn(-c2cc3nc(C(=O)O)c(O)nc3cc2[N+](=O)[O-])cn1 | 29 | 
11 | O=C(O)c1nc2cc(F)c([N+](=O)[O-])cc2nc1O | 2000 | 
12 | O=C(Nc1ccc(C(=O)O)cc1)OCCc1cn(-c2cc3nc(C(=O)O)c(=O)[nH]c3cc2[N+](=O)[O-])cn1 | 270 | 
13 | NS(=O)(=O)c1cccc2c1c([N+](=O)[O-])cc1nc(O)c(O)nc12 [NBQX] |  | Activity (Rattus norvegicus [4]): 2.3
14 | O=C(Nc1ccc(Br)cc1)OCc1cn(-c2cc3nc(C(=O)O)c(=O)[nH]c3cc2[N+](=O)[O-])cn1 | 32 | 
15 | O=C(Nc1ccc(C(=O)O)cc1)OCc1cn(-c2cc3nc(C(=O)O)c(O)nc3cc2[N+](=O)[O-])cn1 |  | Activity (Rattus norvegicus [6]): 3; activity call (active/inactive) (Rattus norvegicus [3]): Active
16 | O=C(O)c1nc2cc(-n3ccnc3)c([N+](=O)[O-])cc2[nH]c1=O | 560 | 
17 | O=C(Nc1ccccc1Br)OCc1cn(-c2cc3nc(C(=O)O)c(O)nc3cc2[N+](=O)[O-])cn1 | 30 | 
18 | Cc1ccc(NC(=O)OCc2cn(-c3cc4nc(C(=O)O)c(O)nc4cc3[N+](=O)[O-])cn2)cc1 | 30 | 
19 | O=C(O)c1nc2cc(-n3cnc(CO)c3)c([N+](=O)[O-])cc2[nH]c1=O | 2600 | 
20 | Cc1cn(-c2cc3nc(C(=O)O)c(O)nc3cc2[N+](=O)[O-])cn1 | 1300 | 
21 | O=C(Nc1cccc(Cl)c1)OCc1cn(-c2cc3nc(C(=O)O)c(O)nc3cc2[N+](=O)[O-])cn1 | 18 | 
22 | O=C(O)Cc1cn(-c2cc3nc(C(=O)O)c(O)nc3cc2[N+](=O)[O-])cn1 | 530 | 
23 | O=C(O)c1nc2cc(-n3ccc(=O)cc3)c([N+](=O)[O-])cc2nc1O | 330 | 
24 | O=C(Nc1cccc(C(=O)O)c1)OCc1cn(-c2cc3nc(C(=O)O)c(O)nc3cc2[N+](=O)[O-])cn1 | 27 | Activity (Rattus norvegicus [7]): 2.3; activity call (active/inactive) (Rattus norvegicus [3]): Active

Further lines, with some results ahead:

Row | Ki [1] [nM] | Structure (SMILES) | other results
25 | 3800 | O=C(O)c1nc2cc(N3CCCCC3)c([N+](=O)[O-])cc2nc1O | 
26 | > 10000 | Cc1nccn1-c1cc2nc(C(=O)O)c(O)nc2cc1[N+](=O)[O-] | 
27 | > 900 | O=C(Nc1ccccc1C(=O)O)OCc1cn(-c2cc3nc(C(=O)O)c(=O)[nH]c3cc2[N+](=O)[O-])cn1 | 
28 | 47 | O=C(NCc1ccc(Br)cc1)OCc1cn(-c2cc3nc(C(=O)O)c(O)nc3cc2[N+](=O)[O-])cn1 | 
29 | 2500 | O=C(O)c1nc2cc(N3CCC(O)CC3)c([N+](=O)[O-])cc2nc1O | 
30 | 100 | O=C(NCc1cccc(Br)c1)OCc1cn(-c2cc3nc(C(=O)O)c(O)nc3cc2[N+](=O)[O-])cn1 | 
31 | 100 | O=c1[nH]c2cc(-n3ccnc3)c([N+](=O)[O-])cc2[nH]c1=O [YM-90K] | Activity (Rattus norvegicus [5]): 2.8; activity call (active/inactive) (Rattus norvegicus [3]): Active
32 | 67 | O=C(NCc1ccccc1)OCc1cn(-c2cc3nc(C(=O)O)c(=O)[nH]c3cc2[N+](=O)[O-])cn1 | 
33 | 62 | O=C(O)Cn1c(=O)c(=O)[nH]c2cc([N+](=O)[O-])c(-n3ccnc3)cc21 [ZONAMPANEL] | Activity (Rattus norvegicus [4]): 0.5; activity call (active/inactive) (Rattus norvegicus [3]): Active
34 | 16 | O=C(Nc1cccc(Br)c1)OCc1cn(-c2cc3nc(C(=O)O)c(O)nc3cc2[N+](=O)[O-])cn1 | 
35 | 22 | O=C(Nc1ccc(C(=O)O)cc1)OCc1cn(-c2cc3nc(C(=O)O)c(=O)[nH]c3cc2[N+](=O)[O-])cn1 | 
